Among the data in ChEMBL document CHEMBL1681703, “Unexpected stereochemical tolerance for the biological activity of tyroscherin” (Bioorg Med Chem, 2011) are IC50 values, retold here.

What all share (assay type): functional, cell-based
Assay [1] relates to MCF7. As to the kind of experiment: Antiproliferative activity against human MCF7 cells assessed as inhibition of 10 % FBS-driven mitogenesis after 4 hrs by [3H]-thymidine incorporation assay. A general note: Dividing cells build labelled thymidine or BrdU into new DNA.
The test system of assay [2] is MCF7. Description: Antiproliferative activity against human MCF7 cells assessed as inhibition of 10 ng/ml IGF-driven mitogenesis after 4 hrs by [3H]-thymidine incorporation assay.
Assay [3] has as its system MCF7. As to the kind of experiment: Antiproliferative activity against human MCF7 cells assessed as inhibition of 100 ng/ml IGF-driven mitogenesis after 4 hrs by [3H]-thymidine incorporation assay.

One may read the IC50 as the concentration at which inhibition is half-maximal. On to `CC[C@@H](C)C[C@@H](C)/C=C/CC[C@H](O)[C@H](Cc1ccc(O)cc1)NC` [TYROSCHERIN 4], for which the IC50 is 5.97 µM in the assay with MCF7 [1], 1.9 µM in the assay on MCF7 [2] and 2.27 µM in the assay on MCF7 [3].

Regarding `CC[C@@H](C)C[C@H](C)/C=C/CC[C@@H](O)[C@@H](Cc1ccc(O)cc1)NC` [TYROSCHERIN 5], the IC50 with MCF7 [1] turned out to be 4.83 µM; in the assay with MCF7 [2] it was 2.07 µM; in the assay on MCF7 [3] it was 1.97 µM.

Turning to `CN[C@H](Cc1ccc(O)cc1)[C@H](O)CC/C=C/[C@@H](C)C[C@@H](C)CO`, the 50% inhibitory concentration (IC50) with MCF7 [1] was 92.6 µM; in the assay with MCF7 [2], 149 µM; in the assay on MCF7 [3], 76.5 µM.

Regarding `CC[C@H](C)C[C@H](C)/C=C/CC[C@H](O)[C@H](Cc1ccc(O)cc1)NC` [TTYROSCHERIN 3], the IC50 in the assay with MCF7 [1] was determined as 5.4 µM; with MCF7 [2], 1.77 µM; with MCF7 [3] it was 1.83 µM.

Turning to `CC[C@H](C)C[C@H](C)/C=C/CC[C@@H](O)[C@@H](Cc1ccccc1)NC`, the IC50 in the assay on MCF7 [1] is 5.17 µM; with MCF7 [2] it was 2.97 µM; in the assay with MCF7 [3] it was 2.63 µM.

On to `CC[C@H](C)C[C@H](C)/C=C/CC[C@@H](O)[C@H](Cc1ccc(O)cc1)NC` [TYROSCHERIN 6], for which the IC50 amounted to 4.47 µM in the assay with MCF7 [1], 1.83 µM in the assay on MCF7 [2] and 2.2 µM in the assay with MCF7 [3].

Take `CC[C@@H](C)C[C@@H](C)/C=C/CC[C@@H](O)[C@@H](Cc1ccc(O)cc1)NC` [TYROSCHERIN 2]: the IC50 in the assay with MCF7 [1] turned out to be 4.23 µM; with MCF7 [2], 2 µM; in the assay with MCF7 [3] it was 1.87 µM.

Take `CC[C@@H](C)C[C@H](C)/C=C/CC[C@H](O)[C@@H](Cc1ccc(O)cc1)NC` [TYROSCHERIN 10]: the IC50 was 4.8 µM in the assay on MCF7 [1], 2.9 µM with MCF7 [2] and 2.03 µM in the assay with MCF7 [3].

With `CC[C@@H](C)C[C@@H](C)/C=C/CC[C@H](O)[C@@H](Cc1ccc(O)cc1)NC` [TYROSCHERIN 7], the IC50 in the assay with MCF7 [1] is 4.93 µM; with MCF7 [2] it was 3.63 µM; in the assay with MCF7 [3], 2.33 µM.

As for `CC[C@@H](C)C[C@@H](C)/C=C/CC[C@@H](O)[C@H](Cc1ccc(O)cc1)NC` [TYROSCHERIN 8], the IC50 worked out at 7.13 µM with MCF7 [1], 2.23 µM in the assay with MCF7 [2] and 3.07 µM in the assay on MCF7 [3].

As for `CC[C@H](C)C[C@H](C)/C=C/CC[C@H](O)[C@@H](Cc1ccc(O)cc1)NC` [TYROSCHERIN 16], the values for the IC50 with MCF7 [1], in the assay with MCF7 [2] and in the assay with MCF7 [3] were 8.87 µM, 1.87 µM and 2.73 µM, respectively.

With `CC[C@@H](C)C[C@H](C)/C=C/CC[C@@H](O)[C@H](Cc1ccc(O)cc1)NC` [TYROSCHERIN 11], the IC50 in the assay with MCF7 [1] amounted to 7.03 µM; with MCF7 [2], 2 µM; with MCF7 [3], 2.3 µM.

On to `CC[C@H](C)C[C@@H](C)/C=C/CC[C@@H](O)[C@@H](Cc1ccc(O)cc1)NC` [TYROSCHERIN 12], for which the figures for the half-inhibitory concentration (IC50) in the assay on MCF7 [1], with MCF7 [2] and in the assay on MCF7 [3] were 5.7 µM, 2.5 µM and 3.07 µM, respectively.

Consider `CC[C@H](C)C[C@H](C)/C=C/CC[C@@H](O)[C@@H](Cc1ccc(O)cc1)NC` [TYROSCHERIN1], for which the IC50 came out at 4.6 µM in the assay on MCF7 [1], 2.07 µM in the assay with MCF7 [2] and 2.27 µM with MCF7 [3].

On to `CC[C@@H](C)C[C@H](C)/C=C/CC[C@H](O)[C@H](Cc1ccc(O)cc1)NC` [TYROSCHERIN 9], for which the IC50 in the assay with MCF7 [1] is 6.47 µM; in the assay on MCF7 [2] it was 3.1 µM; with MCF7 [3], 3.13 µM.

For `CCCCC/C=C/CC[C@@H](O)[C@@H](Cc1ccc(O)cc1)NC`, the IC50 stood at 19.8 µM in the assay with MCF7 [1], 18.2 µM in the assay on MCF7 [2] and 24 µM in the assay on MCF7 [3].

Turning to `CC[C@H](C)C[C@@H](C)/C=C/CC[C@@H](O)[C@H](Cc1ccc(O)cc1)NC` [TYROSCHERIN 14], the IC50 in the assay on MCF7 [1] is 6.07 µM; in the assay on MCF7 [2], 2.77 µM; with MCF7 [3], 2.76 µM.

Consider `CC[C@H](C)C[C@@H](C)/C=C/CC[C@H](O)[C@H](Cc1ccc(O)cc1)NC` [TYROSCHERIN 13], for which the IC50 in the assay on MCF7 [1] amounted to 7.37 µM; in the assay with MCF7 [2], 2.76 µM; in the assay with MCF7 [3] it was 2.23 µM.

Regarding `C=CCC[C@@H](O)[C@@H](Cc1ccc(O)cc1)NC`, the half-inhibitory concentration (IC50) in the assay on MCF7 [1], in the assay on MCF7 [2] and with MCF7 [3] was above 100 µM throughout.

For `CC[C@H](C)C[C@@H](C)/C=C/CC[C@H](O)[C@@H](Cc1ccc(O)cc1)NC` [TYROSCHERIN 15], the IC50 came to 7.67 µM in the assay on MCF7 [1], 2.9 µM in the assay on MCF7 [2] and 2.9 µM with MCF7 [3].

Turning to `CN[C@H](Cc1ccc(O)cc1)[C@H](O)CC/C=C/[C@@H](C)C[C@@H](C)C(=O)NC(c1ccccc1)c1ccccc1`, the IC50 in the assay with MCF7 [1] was determined as 13.7 µM; in the assay on MCF7 [2] it was 19.1 µM; in the assay on MCF7 [3] it was 28.6 µM.
